The values that follow come from article PMC5038266 (Antimicrobial Agents and Chemotherapy, 2016).

The nature of data set [1]: Study 2: multiple-dose drug-drug interaction pharmacokinetics, delamanid with tenofovir or Kaletra (lopinavir/ritonavir). To be noted: for Equivalence outcome for steady-state exposure of coadministered drug: coadministered with delamanid.
Data set [2] can be described thus: Study 1: multiple-dose drug-drug interaction pharmacokinetics, delamanid with ethambutol plus Rifater. To be noted: for AUC / Cmax: human, plasma, po, ethambutol 1100 mg + Rifater once daily, mean ± SD; for AUC: AUCτ of coadministered drug; for Cmax: Cmax of coadministered drug.
The conditions of data set [3]: Study 1; multiple once-daily oral doses of 200 mg delamanid alone and in combination with ethambutol and rifampin/isoniazid/pyrazinamide.
Data set [4] is described as follows: Study 3 safety assessments (adverse events). Format: in vivo, human (healthy subjects). To be noted: efavirenz alone, delamanid alone, and delamanid plus efavirenz.
The conditions of data set [5]: human, in vivo.
For data set [6] the following is noted: in vivo.
The subject of a further data set is MDR-TB. To be noted: cited from earlier work.
Data set [7] is described as follows: Study 3: multiple-dose drug-drug interaction pharmacokinetics, delamanid with efavirenz. To be noted: for AUC / Cmax: human, po; for AUC: Delamanid AUCτ.
A short description of data set [8]: clinical. To be noted: human, in vivo, po; for AUC: Delamanid AUCτ.
Data set [9] can be described thus: clinical. To be noted: human, in vivo, po; for Tmax: Delamanid Tmax.
Data set [10] is described as follows: Study 2 safety assessments (adverse events). The class given is in vivo, human (healthy subjects). To be noted: combinations of delamanid with either tenofovir or lopinavir and ritonavir.
For a further data set, the system named is CYP enzymes. The arrangement: method as in PMID 17132069. To be noted: cited from earlier work.
The mark [11] stands for this setting: delamanid plus optimized background regimen for ≤2 months.
[12] abbreviates: ethambutol-Rifater plus delamanid versus ethambutol-Rifater alone.
Setting [13] is: with DLM, day 15, with delamanid 200 mg once daily.
[14] abbreviates: without DLM, day 15, without delamanid.
Setting [15] is: Cmax of coadministered drug, with DLM.

“Also recorded” adds a separate entry of the source. Like-named read-outs stand apart in the source and are kept apart here.

Consider `C[C@]1(COc2ccc(N3CCC(Oc4ccc(OC(F)(F)F)cc4)CC3)cc2)CN=C(N)O1` [DM-6705], for which, in data set [1] (delamanid and metabolites, unpublished results for metabolites), the “Higher exposure on coadministration of lopinavir/ritonavir (Kaletra) with delamanid” value was “approximately 25%”. In data set [2] (based on the AUC, versus delamanid alone), the “Lower metabolite AUCτ when delamanid coadministered with ethambutol-Rifater” value was 30 to 50%.

By AUC is commonly meant concentration integrated over time. As a reminder, the Cmax is the highest concentration seen after dosing. For orientation: Tmax means the time at which the peak concentration occurs. As for `C[C@]1(COc2ccc(N3CCC(Oc4ccc(OC(F)(F)F)cc4)CC3)cc2)Cn2cc([N+](=O)[O-])nc2O1` [Delamanid], the Tolerability entry in data set [3], in [4] and in data set [10] was “well tolerated” in each case. In addition, the “Equivalence outcome for delamanid exposure” value in [1] (after lopinavir/ritonavir coadministration) is “Equivalence was suggested”. The “Effect of CYP2C9 genotype on delamanid PK” value in data set [2] (unpublished results) is “no effect”. The “Delamanid concentrations reached steady state by day” value in data set [5] is at most 15 days. Moreover, the “Lower delamanid AUCτ on coadministration with ethambutol plus Rifater” value in data set [5] came out at 47%. Besides, the “Lower delamanid Cmax on coadministration with ethambutol plus Rifater” value in data set [5] is reported as 42%. Also, the “Delamanid concentrations reached steady-state by day” value in [6] (human) was at most 14 days. Besides, the “Delamanid AUCτ” value in data set [6] (human, po, 100 mg) is on record as 5,830 ± 1,660 ng·h/ml. In addition, the “Delamanid Cmax” value in data set [6] (human, po, 100 mg) was 734 ± 196 ng/mL. The “Effect of tenofovir coadministration on delamanid PK/systemic exposure” value in data set [6] is given as “did not affect”. Besides, in data set [6], the “Equivalence outcome for steady-state exposure of delamanid” value is given as “documented”. Also, the “Improvement of 2-month sputum culture conversion” value in the data set on MDR-TB (MDR-TB patients, delamanid + optimized background regimen for 2 months compared to placebo + optimized background regimen) is recorded as “approximately 50%”. For the same compound, the Favorable treatment outcomes in the data set on MDR-TB (setting [11]) is reported as 55%; in the data set with MDR-TB (delamanid plus optimized background regimen for ≥6 months, P < 0.001) it was 74.5%. The Mortality is reported as 12.0% in the data set with MDR-TB (setting [11]) and 2.9% in the data set on MDR-TB (delamanid plus optimized background regimen for ≥6 months, P = 0.001). The “Effect of efavirenz coadministration on delamanid steady-state exposure/PK” value in data set [7] was “did not significantly affect”. Further, the “Delamanid Tmax” value in data set [7] (DLM alone, delamanid 100 mg twice daily, day 7 evening dose, median (min-max)) is 4.00 (2.00–6.00) h. The area under the curve (AUC) was found to be 4240 ng·h/mL in [7] (in vivo, 100 mg, DLM + EFV (efavirenz 600 mg once daily for 10 days), delamanid 100 mg twice daily, day 17 evening dose, mean ± SD); 4380 ng·h/mL in data set [7] (in vivo, 100 mg, DLM alone, delamanid 100 mg twice daily, day 7 evening dose, mean ± SD); 4510 ng·h/mL in “clinical [8]” (100 mg); 4700 ng·h/mL in “clinical [8]” (100 mg, Study 2, DLM alone, delamanid 100 mg twice daily, day 14, plasma, mean ± SD); 3110 ng·h/mL in the data set “clinical [9]” (200 mg, Delamanid AUCτ); 5950 ng·h/mL in “clinical [9]” (200 mg, Delamanid AUCτ, Study 1, DLM + PLC, delamanid 200 mg once daily, day 15, plasma, mean ± SD). The Cmax in data set [7] (in vivo, 100 mg, Delamanid Cmax, DLM + EFV (efavirenz 600 mg once daily for 10 days), delamanid 100 mg twice daily, day 17 evening dose) turned out to be 394 ng/mL; in data set [7] (in vivo, 100 mg, Delamanid Cmax, DLM alone, delamanid 100 mg twice daily, day 7 evening dose) it was 391 ng/mL; in “clinical [8]” (100 mg, Delamanid Cmax) it was 518 ± 114 ng/mL; in “clinical [8]” (100 mg, Delamanid Cmax, Study 2, DLM alone, delamanid 100 mg twice daily, day 14, plasma, mean ± SD), 617 ± 135 ng/mL; in the data set “clinical [9]” (200 mg, Delamanid Cmax), 270 ± 38.9 ng/mL; in “clinical [9]” (200 mg, Delamanid Cmax, Study 1, DLM + PLC, delamanid 200 mg once daily, day 15, plasma, mean ± SD), 476 ± 119 ng/mL. The Tmax is 4 h in the data set “clinical [8]” (100 mg); 4.06 h in “clinical [9]” (200 mg); 4 h in “clinical [9]” (200 mg, Study 1, DLM + PLC, delamanid 200 mg once daily, day 15, plasma, median (min-max)). For the same compound, the “Effects on CYP activities” value in the data set with CYP enzymes (in vitro) is reported as “neither stimulatory nor inhibitory effects”. For the same compound, in the data set on CYP enzymes (incubation of delamanid with liver microsomes, metabolites minimally quantifiable), the “Metabolism by CYP enzymes” value was “not metabolized by CYP enzymes”.

Take `O=C1Nc2ccc(Cl)cc2[C@@](C#CC2CC2)(C(F)(F)F)O1` [Efavirenz]: in [4], the Tolerability result is given as “well tolerated”. In addition, the “Effect of delamanid on efavirenz plasma concentrations/exposure” value in [7] is on record as “not affected; also recorded: did not affect”. For the same compound, in data set [7] (efavirenz 600 mg once daily in the evening for 10 days, without delamanid, mean ± SD), the “AUCτ of coadministered drug, without DLM” value is listed as 84.7 ± 37.8 (14) h·µg/ml. Moreover, the peak concentration (Cmax) was determined as 5810 ± 3030 ng/mL in data set [7] (plasma, 600 mg, Cmax of coadministered drug, with DLM, efavirenz 600 mg once daily in the evening for 10 days, with delamanid 100 mg twice daily, mean ± SD) and 5950 ± 1670 ng/mL in data set [7] (plasma, 600 mg, Cmax of coadministered drug, without DLM, efavirenz 600 mg once daily in the evening for 10 days, without delamanid, mean ± SD).

Turning to `CC[C@@H](CO)NCCN[C@@H](CC)CO` [Ethambutol], in data set [2] (setting [12]), the “Higher AUCτ with delamanid coadministration” value is given as “approximately 25%” and the “Higher Cmax with delamanid coadministration” value was “approximately 25%”. In data set [2] (setting [13]), the area under the curve (AUC) was 22400 ± 4770 ng·h/mL and the Cmax turned out to be 4450 ± 820 ng/mL. Further, the exposure (AUC) in [2] (setting [14]) is 18200 ± 3210 ng·h/mL.

Turning to `NNC(=O)c1ccncc1` [Isoniazid], in data set [2], the “Isoniazid concentrations in slow acetylators versus intermediate/rapid acetylators (NAT2 genotype)” value was around 2 fold. Besides, in data set [2] (setting [13]), the AUC amounted to 12100 ± 6900 ng·h/mL and the Cmax was found to be 4620 ± 980 ng/mL. The area under the curve (AUC) in the data set “clinical [9]” (AUCτ of coadministered drug, without DLM, Study 1, ethambutol 1100 mg + Rifater once daily, day 15, without delamanid, mean ± SD) was found to be 20000 ± 8000 ng·h/mL.

Take `Cc1cccc(C)c1OCC(=O)N[C@@H](Cc1ccccc1)[C@@H](O)C[C@H](Cc1ccccc1)NC(=O)[C@H](C(C)C)N1CCCNC1=O` [Lopinavir]: in data set [1], the “Effect of delamanid on exposure of coadministered drug” value (from here on “Effect … of coadministered drug”) is on record as “not affected” and the “Equivalence outcome for steady-state exposure of coadministered drug” value (from here on “Equivalence outcome … of coadministered drug”) was “equivalence was documented”. In addition, the “Cmax of coadministered drug, without DLM” value in data set [1] (tenofovir 300 mg once daily or lopinavir 400 mg/ritonavir 100 mg twice daily, day 14, without delamanid, mean ± SD) is on record as 12.9 ± 3.17 (11) μg/ml.

In the case of `NC(=O)c1cnccn1` [Pyrazinamide], the AUC amounted to 533000 ± 141000 ng·h/mL in data set [2] (setting [13]) and 488000 ± 90300 ng·h/mL in data set [2] (setting [14]). The Cmax stood at 51400 ± 9060 ng/mL in data set [2] (setting [13]) and 49700 ng/mL in “clinical [9]” (Cmax of coadministered drug, without DLM).

Take `CO[C@H]1/C=C/O[C@@]2(C)Oc3c(C)c(O)c4c(O)c(c(/C=N/N5CCN(C)CC5)c(O)c4c3C2=O)NC(=O)/C(C)=C\C=C\[C@H](C)[C@H](O)[C@@H](C)[C@@H](O)[C@@H](C)[C@H](OC(C)=O)[C@@H]1C` [Rifampin]: the AUC in “clinical [9]” (AUCτ of coadministered drug, with DLM) was found to be 55900 ng·h/mL; in “clinical [9]” (AUCτ of coadministered drug, without DLM), 48200 ng·h/mL. The maximum concentration (Cmax) in the data set “clinical [9]” (setting [15]) amounted to 13200 ng/mL.

Take `CC(C)c1nc(CN(C)C(=O)N[C@H](C(=O)N[C@@H](Cc2ccccc2)C[C@H](O)[C@H](Cc2ccccc2)NC(=O)OCc2cncs2)C(C)C)cs1` [Ritonavir]: in data set [1], the “Effect … of coadministered drug” value is on record as “not affected” and the “Equivalence outcome … of coadministered drug” value was “suggested”. In the data set “clinical [8]” (setting [15]), the Cmax turned out to be 1270 ng/mL.

Consider `C[C@H](Cn1cnc2c(N)ncnc21)OCP(=O)(O)O` [Tenofovir], for which, in data set [1], the “Effect … of coadministered drug” value is listed as “not affected” and the “Equivalence outcome … of coadministered drug” value was “suggested”. The “AUCτ of coadministered drug, with DLM” value in [1] (tenofovir 300 mg once daily or lopinavir 400 mg/ritonavir 100 mg twice daily, day 14, with delamanid 100 mg twice daily, mean ± SD) is recorded as 2.850 ± 0.644 (13) h·µg/ml. Moreover, the highest concentration (Cmax) in “clinical [8]” (setting [15]) is 294 ng/mL.
